Measured values taken from publication PMC7792806, “Development of Second Generation Activity-Based Chemical Probes for Sirtuins” (Molecules, 2020).
Read-outs that look alike come from different tables or passages of the source.

Key:
SIRT1 [1] = target: T1, SIRT1 (Homo sapiens, UniProt Q96EB6); test: Sirtuin inhibition assay (HPLC), SIRT1; format: biochemical; settings: for IC50: substrate p53K382Ac, 500 μM NAD+, 500 μM peptide, 10 μM sirtuin, pH 7.5, 37 °C
T1 construct: Plasmids of SIRT1 (full length); made in house
T1 sequence (Q96EB6 1-747): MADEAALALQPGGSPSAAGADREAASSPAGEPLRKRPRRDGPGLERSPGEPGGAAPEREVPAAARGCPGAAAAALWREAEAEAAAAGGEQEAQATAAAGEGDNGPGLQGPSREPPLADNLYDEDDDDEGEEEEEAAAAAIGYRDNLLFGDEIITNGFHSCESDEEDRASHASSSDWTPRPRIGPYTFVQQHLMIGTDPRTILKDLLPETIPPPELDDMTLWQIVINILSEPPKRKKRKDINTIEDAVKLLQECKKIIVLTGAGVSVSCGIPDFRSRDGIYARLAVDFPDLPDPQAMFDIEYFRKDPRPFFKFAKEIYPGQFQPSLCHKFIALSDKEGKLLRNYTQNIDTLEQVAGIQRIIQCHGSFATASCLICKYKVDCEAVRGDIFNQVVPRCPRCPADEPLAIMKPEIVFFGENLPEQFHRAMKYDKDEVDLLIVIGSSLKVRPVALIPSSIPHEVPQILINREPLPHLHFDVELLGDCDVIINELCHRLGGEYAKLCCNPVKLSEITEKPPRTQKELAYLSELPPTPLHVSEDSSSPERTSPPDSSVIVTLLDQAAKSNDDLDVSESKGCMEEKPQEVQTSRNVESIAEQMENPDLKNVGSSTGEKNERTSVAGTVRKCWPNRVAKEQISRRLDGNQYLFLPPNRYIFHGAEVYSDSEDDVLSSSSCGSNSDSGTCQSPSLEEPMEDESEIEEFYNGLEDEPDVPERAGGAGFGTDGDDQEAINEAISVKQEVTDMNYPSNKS
Procedure: (§1) Plasmids of SIRT1 (full length), SIRT2 (38-356), SIRT3 (102-399), and SIRT5 (34-302) were generous gifts from Dr. Hening Lin (Cornell University, Ithaca, NY, USA). SIRT6 was a gift from Cheryl Arrowsmith (Addgene plasmid #28271). The proteins were expressed and purified according to previously published protocols. The identity of the protein was confirmed by tryptic digestion followed by LC-MS/MS analysis performed at the Vermont Genetic Network (VGN) Proteomics Facility. Protein concentrations were determined by Bradford assay (Thermo Fisher Scientific, Rockford, IL, USA).
(§2) A typical reaction contained 500 μM NAD^+ and 500 μM peptide substrate (H3K9Ac for SIRT2, SIRT3 and SIRT6, p53K382Ac for SIRT1 and SIRT5) of varying concentrations of a small molecule probe in 100 mM phosphate buffer pH 7.5. The reactions were initiated by the addition of 10 μM of sirtuin and were incubated at 37 °C before being quenched by 8 μL of 10% TFA. The incubation time was controlled so that the conversion of substrate was less than 15%. The samples were then injected on an HPLC fitted to a Macherey-Nagel Nucleosil C18 column. NAD^+, NAM and AADPR (acetyl-ADP-ribose) peaks were resolved using a gradient of 0 to 20% methanol in 20 mM ammonium acetate. Chromatograms were analyzed at 260 nm. Reactions were quantified by integrating areas of peaks corresponding to NAD^+ and AADPR. Rates were plotted as a function of small molecule probe concentration, and points were fitted to the following equation:ν(%) = ν0(%) − [ν0(%)(10^x)/(10^x + IC50)](1) where ν(%) represents the turnover rate expressed as percent enzymatic activity remaining, and ν0(%) represents the uninhibited turnover rate expressed as an enzymatic activity of 100%. The variable x represents the log[probe] in nanomolar. IC50 values were derived from this equation.

SIRT2 [2] = target: T2, SIRT2 (Homo sapiens, UniProt Q8IXJ6); test: Sirtuin inhibition assay (HPLC), SIRT2; format: biochemical; settings: substrate H3K9Ac; 500 μM NAD+, 500 μM peptide, 10 μM sirtuin, pH 7.5, 37 °C
T2 construct: SIRT2 (38-356); made in house
T2 sequence (Q8IXJ6 38-356): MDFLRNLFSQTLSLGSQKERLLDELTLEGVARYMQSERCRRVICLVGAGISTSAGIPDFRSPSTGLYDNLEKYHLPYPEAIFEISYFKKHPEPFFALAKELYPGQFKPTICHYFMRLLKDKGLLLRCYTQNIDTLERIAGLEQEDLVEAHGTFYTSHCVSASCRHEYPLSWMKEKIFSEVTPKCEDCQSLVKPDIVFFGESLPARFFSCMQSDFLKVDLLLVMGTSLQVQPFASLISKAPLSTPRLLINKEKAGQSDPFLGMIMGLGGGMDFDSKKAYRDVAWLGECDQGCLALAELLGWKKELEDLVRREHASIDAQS
Procedure: as §1, §2

SIRT3 = target: T3, SIRT3 (Homo sapiens, UniProt Q9NTG7); test: Sirtuin inhibition assay (HPLC), SIRT3; format: biochemical; settings: for IC50: substrate H3K9Ac, 500 μM NAD+, 500 μM peptide, 10 μM sirtuin, pH 7.5, 37 °C
T3 construct: SIRT3 (102-399); made in house
T3 sequence (Q9NTG7 102-399): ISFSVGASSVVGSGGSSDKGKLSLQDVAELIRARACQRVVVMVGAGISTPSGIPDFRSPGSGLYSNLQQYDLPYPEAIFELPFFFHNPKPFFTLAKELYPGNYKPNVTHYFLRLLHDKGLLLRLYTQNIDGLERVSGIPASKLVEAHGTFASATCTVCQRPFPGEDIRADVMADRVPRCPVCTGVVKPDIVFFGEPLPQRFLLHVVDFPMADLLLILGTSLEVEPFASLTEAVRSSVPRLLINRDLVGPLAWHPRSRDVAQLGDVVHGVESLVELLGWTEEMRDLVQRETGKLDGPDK
Procedure: as §1, §2

SIRT6 = SIRT6 (Homo sapiens, UniProt Q8N6T7); test: Sirtuin inhibition assay (HPLC), SIRT6; format: biochemical; set-up: host or cells: E. coli (inferred from b12); settings: substrate H3K9Ac; 500 μM NAD+, 500 μM peptide, 10 μM sirtuin, pH 7.5, 37 °C; NI = Not inhibited
Procedure: as §1
A typical reaction contained 500 μM NAD^+ and 500 μM peptide substrate (H3K9Ac for SIRT2, SIRT3 and SIRT6, p53K382Ac for SIRT1 and SIRT5) of varying concentrations of a small molecule probe in 100 mM phosphate buffer pH 7.5. The reactions were initiated by the addition of 10 μM of sirtuin and were incubated at 37 °C before being quenched by 8 μL of 10% TFA. The incubation time was controlled so that the conversion of substrate was less than 15%. The samples were then injected on an HPLC fitted to a Macherey-Nagel Nucleosil C18 column. NAD^+, NAM and AADPR (acetyl-ADP-ribose) peaks were resolved using a gradient of 0 to 20% methanol in 20 mM ammonium acetate. Chromatograms were analyzed at 260 nm. Reactions were quantified by integrating areas of peaks corresponding to NAD^+ and AADPR. […]

[3] = system: HEK293 cells overexpressing SIRT5; test: Cellular NAD+ measurement, NAD+ cycling assay; format: cell-based, human; settings: 1 mM for 6 h
Procedure: HEK293 cells overexpressing SIRT5 were subjected to a treatment known to increase the cellular NAD^+ level.
To the cell pellet was added 30 μL of ice-cold 7% perchloric acid; then, the sample was vortexed for 30 s and then sonicated on ice for 5 min. The vortex–sonication cycle was repeated three times. Then, the sample was centrifuged for 3 min at room temperature. Clear supernatant was taken out and neutralized to pH 7 with 3 M NaOH and 1 M phosphate buffer (pH 9). NAD^+ level was then measured using NAD^+ cycling assay as described previously [14].

SIRT5 [4] = target: T4, SIRT5 (Homo sapiens, UniProt Q9NXA8); test: In-cell labeling of SIRT5 with probe 2B, cellular imaging; format: cell-based; settings: 1 mM NR for 6 h, then 50 μM probe 2B, 15 min irradiation at 365 nm; compared with control cells
T4 construct: endogenous in cells; host or cells: HEK293
T4 sequence (Q9NXA8 37-310): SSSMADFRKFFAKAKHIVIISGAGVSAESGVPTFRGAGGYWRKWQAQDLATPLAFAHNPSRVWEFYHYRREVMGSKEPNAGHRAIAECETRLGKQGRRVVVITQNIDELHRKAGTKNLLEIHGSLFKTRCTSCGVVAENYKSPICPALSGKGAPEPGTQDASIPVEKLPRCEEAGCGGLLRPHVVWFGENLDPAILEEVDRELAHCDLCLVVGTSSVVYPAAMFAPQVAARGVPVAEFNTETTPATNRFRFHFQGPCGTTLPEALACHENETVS
Procedure: HEK293 cells overexpressing SIRT5 were subjected to a treatment known to increase the cellular NAD^+ level. […] Then, the cells were incubated with 50 μM probe 2B and irradiated at 365 nm for 15 min on ice. Subsequently, the cells were treated with freshly prepared “click” staining mix as described in “Materials and Methods”. After the “click” reaction, cells were incubated with anti-SIRT5 antibody before the images were acquired.
Cells were seeded in 35 mm glass-bottom dishes (MatTek, Ashland, MA, USA) and grew until 70 to 80% confluence. Then, the cells were incubated in the presence or absence of 1 mM NR for 6 h before the medium was discarded. The cells were gently rinsed with fresh growth medium three times. Subsequently, the cells were incubated with 50 μM probe 2B for 1 h before the culture dishes were placed on ice. The cells were irradiated at 365 nm in cold room for 15 min followed by fixation with 4% paraformaldehyde and permeabilization with 0.2% Triton X-100 in PBS. Then, the cells were treated with freshly prepared “click” staining mix (10 μM TAMRA-azide, 1 mM CuSO4 and 1 mM TBTA in 2 mL of deionized water), followed by the addition of 2 mM TCEP. […]
Fluorescence microscopy was carried out on a Leica TCS SP5 confocal microscope (Leica Microsystems, Mannheim, Germany). […] Images were acquired and processed using Leica Application Suite Advanced Fluorescence (LAS AF) software.

SIRT2 [5] = target: T2, SIRT2; set-up: method as in PMID 29385333; settings: UV irradiation; cited from earlier work
SIRT1 [6] = system: SIRT1; set-up: method as in PMID 29385333; settings: cited from earlier work
SIRT5 [7] = target: T5, SIRT5 (Homo sapiens, UniProt Q9NXA8); test: Sirtuin inhibition assay (HPLC), SIRT5; format: biochemical; settings: substrate p53K382Ac; 500 μM NAD+, 500 μM peptide, 10 μM sirtuin, pH 7.5, 37 °C; NI = Not inhibited
T5 construct: SIRT5 (34-302); made in house
T5 sequence (Q9NXA8 34-302): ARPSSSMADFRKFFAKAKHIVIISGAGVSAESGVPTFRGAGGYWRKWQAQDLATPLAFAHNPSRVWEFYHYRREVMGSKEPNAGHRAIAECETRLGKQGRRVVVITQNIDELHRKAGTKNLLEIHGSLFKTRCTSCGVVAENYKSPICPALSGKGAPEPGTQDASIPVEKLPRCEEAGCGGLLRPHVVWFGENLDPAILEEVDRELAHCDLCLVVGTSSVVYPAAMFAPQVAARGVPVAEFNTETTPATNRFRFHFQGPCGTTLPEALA
Procedure: as §1, §2

[8] = system: SIRT1, SIRT2, SIRT3, SIRT5, and SIRT6; set-up: method as in PMID 29385333; settings: cited from earlier work
SIRT2 [9] = target: T2, SIRT2; test: Photoaffinity labeling of recombinant SIRT2, in-gel fluorescence; format: biochemical
Procedure: (§3) The improved inhibitory effects of the 2nd generation ABPs prompted us to evaluate the labeling efficiency of these new probes. We first compared the abilities of benzophenone-based probe 1A and diazirine-based probe 2A to label recombinant SIRT2. The enzyme was incubated with NAD^+ and the probe, and then irradiated at 365 nm for 1 h. Subsequently, the sample was conjugated to TAMRA-azide via Cu(I)-catalyzed “click” reaction. The sample was resolved by SDS-PAGE and detected by in-gel fluorescence scanning.
Figure 3 Comparison of labeling efficiencies of probes 1A and 2A. (A) Concentration-dependent labeling of SIRT2. SIRT2 (10 μM) was incubated with 500 μM NAD^+ and indicated concentrations of probe 1A or 2A in 100 mM phosphate buffer pH 7.5. The samples were incubated at 37 °C for 10 min, subjected to UV irradiation for 1 h, and then “click” conjugated to TAMRA-azide as described in “Materials and Methods”; (B) and (C) Time-dependent labeling of SIRT2 by probe 2A. The labeling reached plateau within 20 min.
A typical labeling experiment was performed as follows: in a 0.7 mL Eppendorf tube, purified recombinant human sirtuin (10 μM) was incubated with NAD^+ (500 μM) and activity-based probe at 37 °C for 10 min. […] Then, destained gel was analyzed with in-gel fluorescence scanning using a Biorad ChemiDoc MP imager (excitation 532 nm, 580 nm cut-off filter and 30 nm band-pass). […]

[10] = system: SIRT1, SIRT2, SIRT3, and SIRT6; test: Labeling of individual recombinant sirtuins, in-gel fluorescence; format: biochemical, human; settings: Figure S1
Procedure: as §3
A typical labeling experiment was performed as follows: in a 0.7 mL Eppendorf tube, purified recombinant human sirtuin (10 μM) was incubated with NAD^+ (500 μM) and activity-based probe at 37 °C for 10 min. The sample was transferred to a clear-bottom 96-well plate, placed on ice, and irradiated at 365 nm with a UV-lamp in a cold room. Subsequently, ingredients of the “click-chemistry” including azide-fluor 545, CuSO4, reducing agent (tris(2-carboxyethyl)phosphine, TCEP) and stabilizing agent (tris[(1-benzyl-1H-1,2,3-triazol-4-yl)methyl]amine, TBTA) were added, and the sample was gently agitated at 250 rpm on a microshaker at room temperature for 30 min. Then, the sample was resolved by SDS-PAGE. […] Then, destained gel was analyzed with in-gel fluorescence scanning using a Biorad ChemiDoc MP imager (excitation 532 nm, 580 nm cut-off filter and 30 nm band-pass). […]

SIRT1 [11] = test: Acetylation level of p53 lysine 382 in cells; format: cell-based; settings: Figure S3

Sequence of SIRT6 (Q8N6T7 whole entry): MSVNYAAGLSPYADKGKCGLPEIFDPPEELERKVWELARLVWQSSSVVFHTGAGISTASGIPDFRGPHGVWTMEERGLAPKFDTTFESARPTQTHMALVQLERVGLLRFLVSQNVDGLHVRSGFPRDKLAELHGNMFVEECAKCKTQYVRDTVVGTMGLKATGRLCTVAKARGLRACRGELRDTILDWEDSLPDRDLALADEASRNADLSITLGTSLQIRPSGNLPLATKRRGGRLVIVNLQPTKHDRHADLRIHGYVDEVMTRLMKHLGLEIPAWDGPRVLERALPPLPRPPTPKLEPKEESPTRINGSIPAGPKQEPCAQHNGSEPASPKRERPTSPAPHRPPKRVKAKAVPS

Structure (SMILES): C#CCOc1ccc(C(=O)c2ccc(C(=O)N[C@@H](CCCCNC(=S)CCC(=O)O)C(=O)N[C@@H](C)C(=O)N[C@@H](C)C(=O)OC)cc2)cc1 [Probe 1B, reference compound]
- IC50 (SIRT1 [1]): > 5 mM
- IC50 (SIRT2 [2]): > 5 mM
- IC50 (SIRT3): > 5 mM
- IC50 (SIRT6): > 5 mM

Structure (SMILES): NC(=O)c1ccc[n+]([C@@H]2O[C@H](CO)[C@@H](O)[C@H]2O)c1 [NR, Nicotinamide riboside]
- increase of cellular NAD+ concentration [3]: 170%
- labeling intensity of SIRT5 by probe 2B in cells (SIRT5 [4]): increased labeling intensity

Structure (SMILES): C#CCOc1ccc(C(=O)c2ccc(C(=O)N[C@@H](CCCCNC(C)=S)C(=O)N[C@@H](C)C(=O)N[C@@H](C)C(=O)OC)cc2)cc1 [Probe 1A]
- irradiation time to plateau of SIRT2 labeling (SIRT2 [5]): ~60 min
- acetylation level of p53 lysine 382, combined with TSA (SIRT1 [6]): enhance the acetylation level of p53 lysine 382

Structure (SMILES): C#CCOc1ccc(C(=O)c2ccc(C(=O)N[C@@H](CCCCNC(=S)CCCCCCCCCCCCC)C(=O)N[C@@H](C)C(=O)N[C@@H](C)C(=O)OC)cc2)cc1 [Probe 1C, reference compound]
- IC50 (SIRT1 [1]): > 1 mM
- IC50 (SIRT3): > 5 mM
- IC50 (SIRT5 [7]): > 5 mM
- isoforms labeled in complex protein mixture [8]: selectively labeled SIRT6

Structure (SMILES): C#CCCCC1(CCC(=O)N[C@@H](CCCCNC(C)=S)C(=O)N[C@@H](C)C(=O)N[C@@H](C)C(=O)OC)N=N1 [Probe 2A]
- increased inhibition of SIRT1 compared with probe 1A (SIRT1 [1]; ratio of IC50s): 3 fold
- increased inhibition of SIRT3 compared with probe 1A (SIRT3; ratio of IC50s): 2 fold
- labeling intensity of SIRT2 (SIRT2 [9]; 10 μM SIRT2, 500 μM NAD+, 1 h irradiation at 365 nm, all concentrations examined): more intensively than probe 1A
- irradiation time to saturation of SIRT2 labeling (SIRT2 [9]; UV irradiation at 365 nm): ≤ 20 min
- labeling of recombinant sirtuins [10]: labeled SIRT1, SIRT2, SIRT3, and SIRT6 to different extents in dose-dependent manners
- acetylation level of p53 lysine 382, combined with TSA (SIRT1 [11]): increase the acetylation level of p53 lysine 382
